Structures are written as SMILES. Like-named read-outs stand apart in the source and are kept apart here.

The subject of data set [1] is LN229 MGMT−/MMR− flank tumors. The data set can be described thus: Murine flank tumor model, LN229 MGMT-/MMR-. It is filed as in vivo. To be noted: for tumor growth, MGMT−/MMR− flank tumors: P.O.; for median OS: LN229 MGMT−/MMR− flank tumor-bearing mice, 5 mg/kg. From the text: FIGS. 9A-91: KL-50 is safe and efficacious on both MGMT−/MMR+ and MGMT−/MMR-flank tumors over a wide range of treatment regimens and conditions. […] (FIG. 9C) Mean body weight of mice during LN229 flank tumor experiments. (FIG. 9D) Kaplan-Meier analysis of LN229 MGMT−/MMR− xenograft flank tumor-bearing mice to determine survival rate based on death, removal from study if mouse body weight loss exceeded 20% of initial body weight, or if tumor volume exceeded 2000 mm^3. […] (FIGS. 9H-91) Xenograft LN229 MGMT−/MMR+ and LN229 MGMT−/MSH6—flank tumors with a larger average starting tumor size of −400 mm^3 and −350 mm^3 respectively, treated with 3 weekly cycles of P.O administration of 10% cyclodextrin (n=4) or KL-50 (n=4, 3 cycles of 25 mg/kg on Monday, Wednesday, and Friday). The study period was limited by control groups which had to be euthanized for exceeding the ethical maximum allowed tumor size, thus ending the study. In all panels, points, mean; error bars, SEM; *, P<0.05; **, P<0.01; ***, P<0.001; ****, P<0.0001; ns, not significant.
Mouse Protocols for Flank Studies. A mouse tumor model was established by subcutaneously implanting human LN229 (MGMT−/MMR+) or LN229 (MGMT−/MMR−) cells. Cells were cultured as a monolayer in DMEM+10% FBS (Thermo Fisher) at 37° C. in a humidified atmosphere with 5% CO2 and passaged between one and three days prior to implantation and media was replaced every 2-3 days as needed to maintain cell viability. Cells were not allowed to exceed 80% confluency. On the day of implantation, cells were trypsinized, washed with complete media and pelleted by centrifugation at 1200 rpm for 5 minutes. The supernatant was decanted, and cells were washed three times with sterile PBS and pelleted by centrifugation. During the final centrifugation, viability was determined using trypan blue exclusion. Cells were resuspended in sterile PBS and diluted 1:1 in Matrigel (Coming, Cat #47743-716) for a final concentration of 5×10^6 cells/100 μL. 5 million cells were injected into the flank of female nude mice (Envigo, Hsd:Athymic Nude-Fox1nu, 3-4 weeks age, 15 g). […] Caliper measurements were obtained during the dosing period and at least two weeks following treatment. Mice were euthanized if body weight loss exceeded 20% or if tumor volume increased to greater than 2000 mm^3. Kaplan-Meier analysis was used to evaluate survival rate based on death or removal from study.

Data set [2] deals with HCT116 cells complemented with chromosome 3 carrying wildtype MLH1 (+Chr3). Put plainly: Short-term viability assay, HCT116 +Chr3 cells +/- O6BG. The data set is classed as cell-based, human. To be noted: with or without 10 μM O6BG pre-treatment. The method, then: FIG. 1B: Short-term viability assay curves for KL-50 in DLD1 MSH6-deficient cells pre-treated with 0.01% DMSO control (CTR) or 10 μM O^6BG (+O^6BG) for 1 h prior to KL-50 addition. […] Short-term viability assay curves for (FIG. 1E) KL-50 in HCT116 MLH1−/−cells or (FIG. 1F) HCT116 cells complemented with chromosome 3 carrying wildtype MLH1 (+Chr3) pre-treated with 0.01% DMSO control or 10 μM O^6BG (+O^6BG) for 1 h prior to KL-50 addition. […] For these figures, points, mean; error bars, SD; n>3 technical replicates.
(§1) Short-term Cell Viability Assay. Cells were seeded in 96-well plates at 1000 or 2000 cells/well and allowed to adhere at 23° C. for 60 min and then incubated overnight at 37° C. Cells were treated with indicated concentrations of compounds in triplicate for 4-6 days prior to fixation with 3.7% paraformaldehyde and nuclear staining with 1 μg/mL Hoechst 33342 dye. Cells were imaged on a Cytation 3 imaging reader (BioTek) and quantified using CellProfiler software. For in vitro short-term growth delay experiments, IC50 values were determined from the nonlinear regression equation, [inhibitor] vs normalized response with variable slope.

The test system of data set [3] is four isogenic LN229 glioblastoma cell lines. The data set can be described thus: Short-term cell viability assays, statements across the isogenic lines. To be noted: regardless of MMR status. It is filed as cell-based, human. The method, then: (§2) LN229 MGMT- and MGMT+ cell lines were a gift from B. Kaina (Johannes Gutenberg University Mainz, Mainz, Germany) and grown in Gibco® Duilbecco's Modified Eagle Medium with 10% fetal bovine serum (DMEM). For each compound tested, the relationship between MGMT status and MMR status and compound activity, in terms of IC50 values ([…]), was determined by the following method. On day 1, LN229 isogenic cells of varying MGMT and MMR status were seeded in 96 well format at a density of 2000 cells/well in 100 μL of DMEM media and allowed to adhere overnight. On day 2, a drug master plate was made with 100×the desired maximal concentration of test compound and serially diluted by 2 until 100×the minimal desired concentration, with one DMSO control. Then daughter plates were created with varied concentrations from 3-times the minimal concentration to 3-times the maximal desired concentration. Afterwards, 50 μL of daughter drug plate was added to 100 μL of the seeded cells for a final concentration of 1×in triplicate. Cells were allowed to grow for 6 days. On day 7, the cells were fixed, and stained with Hoechst nuclear dye and imaged to determine growth inhibition.
(§3) For each compound tested, the relationship between MGMT status and MMR status and compound activity, in terms of IC50 values (in μM), was determined. In addition, for each compound, the therapeutic index (TI) was calculated, according to the equation MGMT TI=IC50 (MGMT+/MMR+) divided by IC50 (MGMT−/MMR+). The T1 indicates the efficacy of a compound in treating the targeted MGMT-cancer cells as compared to potential for the same compound to damage, or have adverse effects against, normal cells which are MGMT+cells, The higher the value of the TI, the safer the compound is. […] MMR RI (resistance index)=IC50 (MGMT−/MMR−) divided by IC50 (MGMT−/MMR+). The higher the value of the RI, the less likely that resistance to the compound will develop.
as §1

A further data set concerns LN229 MGMT+/MMR− cells. The data set can be described thus: Short-term cell viability assay, LN229 MGMT+/MMR- (shRNA targeting MSH2). The data set is classed as cell-based. To be noted: Homo sapiens. The method, then: as §2, §3, §1
Where [4] appears, read: LN-229, Table II, read-out: IC50 against LN229 cell lines, MGMT MMR−.

As for `NC(=O)c1ncn2c(=O)n(CCF)nnc12` [KL-50], the “tumor growth, MGMT−/MMR− flank tumors” value in data set [1] (5 mg/kg MWF x 3 weeks) was “potently suppressed tumor growth”. The “body weight during flank tumor experiments” value in data set [1] (5 mg/kg MWF x 3 weeks, compared to TMZ or control) was “no significant changes in body weight”. Besides, the “median OS” value in data set [1] (Kaplan-Meier) is reported as “greater than 15 weeks”. The “increase in median OS for KL-50 vs TMZ” value in data set [1] (Kaplan-Meier, MGMT−/MMR− flank) is on record as “greater than 5 week”. Also, the “cytotoxicity in HCT116 MLH1-complemented cells” value in data set [2] is recorded as “induced selective tumor cell killing specifically in the setting of O^6BG-induced MGMT suppression”. For the same molecule, in data set [3], the “activity in MGMT+ cells, in words” value is “limited activity”. In the data set with LN229 MGMT+/MMR− cells (setting [4]), the IC50 (as a rule, the midpoint of a concentration-inhibition curve) amounted to 504 ± 55 µM.
For the molecule `Cn1nnc2c(C(N)=O)ncn2c1=O` [TMZ, 4-methyl-5-oxo-2,3,4,6,8-pentazabicyclo[4.3.0]nona-2,7,9-triene-9-carboxamide, reference compound], the “tumor growth, MGMT−/MMR− flank tumors” value in data set [1] (5 mg/kg MWF x 3 weeks) is recorded as “no efficacy”. In addition, in data set [1] (Kaplan-Meier), the “median OS” value was 10 weeks. For the same molecule, the “cytotoxicity in HCT116 MLH1-complemented cells” value in data set [2] is reported as “enhanced sensitivity to TMZ, which was further potentiated by MGMT depletion”. For the same molecule, the “activity in MGMT+ cells, in words” value in data set [3] is “essentially inactive”. Moreover, the IC50 in the data set on LN229 MGMT+/MMR− cells (LN-229, 144 h, Table 1, 6 days growth, read-out: IC50 against LN229 cell lines, MGMT+ MMR−) was above 100 µM; in the data set with LN229 MGMT+/MMR− cells (setting [4]) it was 1000 ± 107 µM.

The values above are taken from patent publication US20240294478A1, “ANTI-CANCER COMPOUNDS AND METHODS OF USE” (YALE UNIVERSITY, priority 2021, published 2024).
